{
  "source": "patent US10023615B2",
  "about": "“Efficient transport into white blood cells” (priority 2008, dated 2018)",
  "key": {"TC-3 cells": {"system": "TC-3 cells", "experiment": "Inhibition of IL-1 induced pancreatic beta-cell death", "assay_type": "cell-based", "conditions": "1 μM single addition, IL-1 every two days, 15 days", "procedure": "Inhibition of IL-1 induced pancreatic beta-cell death by the D-TAT-IB1(s) peptide was analyzed. TC-3 cells were incubated for 30 minutes with one single addition of the indicated peptides (1, μM), then IL-1 (10 ng/ml) was added.\nApoptotic cells were then counted after two days of incubation with IL-1 by use of Propidium Iodide and Hoechst 33342 nuclear staining. A minimum of 1,000 cells were counted for each experiment.\nLong term inhibition of IL-1P induced cell-death by the D-TAT-IB1 peptide was also analyzed. TC-3 cells were incubated for 30 minutes with one single addition of the indicated peptides (1 μM), then IL-1 (10 ng/ml) was added, followed by addition of the cytokine every two days. Apoptotic cells were then counted after 15 days of incubation with IL-1 by use of propidium iodide and Hoechst 33342 nuclear staining. […] A minimum of 1.000 cells were counted for each experiment."}, "U937 cells": {"system": "U937 cells", "experiment": "Intracellular concentration of transporter constructs subsequent to uptake into U937 cells", "assay_type": "cell-based", "conditions": "U937 cells, 10 μM construct", "procedure": "9. Determination of Intracellular Concentration of Specific Transporter Constructs Subsequent to Uptake (Internalization) of these Peptides into U937 Cells • According to a further experiment, the concentration of specific transporter constructs subsequent to uptake (internalization) of these peptides into U937 cells were determined."}, "U937 lymphoma cells": {"system": "U937 lymphoma cells", "experiment": "Uptake (internalization) of FITC-labeled TAT derived transporter constructs in U937 cells, fluorescence plate reader", "assay_type": "cell-based", "conditions": "10 μM, U937, Lymphoma, 24 h", "protocol": "Cells were plated into poly-DL-lysine coated dishes at a concentration of 1×10^6 cells/ml. Plates were then incubated for 24 h at 37° C., 5% CO2, and 100% relative humidity prior to the addition of a known concentration of peptide. After peptide addition, the cells were incubated 30 min, 1, 6 or 24 h at 37° C., 5% CO2, and 100% relative humidity. Cells were then washed twice with an acidic buffer (Glycin 0.2 M, NaCl 0.15 M, pH 3.0) in order to remove the cell-surface adsorbed peptide (see Kameyama et al., (2007), Biopolymers, 88, 98-107). […] The cell wash using an acidic buffer was thus employed to remove the cell-surface adsorbed peptides. […] Cells were broken by the addition of the RIPA lysis buffer. The relative amount of internalized peptide was then determined by fluorescence after background substraction and protein content normalization. • The steps are thus: 1. […] Analysis of peptide internalization with a fluorescence plate reader • f) Cell Culture and Peptide Treatment • (1) The 6 well culture plates are coated with 3 ml of Poly-D-Lys (Sigma P9011; 25 μg/ml in PBS), the 24 well plates with 600 μl and the 96 well plates with 125 μl and incubated for 4 h at 37° C., CO2 5% and 100% relative humidity. • (2) After 4 hours the dishes were washed twice with 3.5 ml PBS, 700 μl or 150 μl PBS for the 6, 24 or 96 well plates, respectively. • (3) The cells were plated into the dishes in 2.4 ml medium (RPMI) at plating densities of 1′000′000 cells/ml for suspension cells. After inoculation, the plates were incubated at 37° C., 5% CO2 and 100% relative humidity for 24 hours prior to the addition of the peptide. Adherent cells should be at a density of 90-95% the day of treatment and were plated in DMEM :\n• (4) The cells were treated with the desired concentration of FITC labeled peptide (stock solution at a concentration of 10 mM in H2O). • (5) Following peptide addition, the cells were incubated 0 to 24 hours (e.g. 30 min, 1, 6 or 24 hours) at 37° C., CO2 5% and 100% relative humidity. • Acidic Wash and Cellular Extracts: • (6) The extracts were cooled on ice. • Suspension cells (or cells, which don attach well to the dish): • Transfer the cells in ? […] To recover the maximum of cells, wash the dish with 1 ml of PBS. • Harvest the cells 2 min at 2400 rpm max. • Suspend the cells in 1 ml cold PBS. • Transfer the cells into a coated “Eppendorf tube” (coated with 1 ml of poly D-Lys for 4 hours and washed twice with 1 ml PBS). • Wash three times with 1 ml of cold acidic wash buffer and centrifuge 2 min at 2400 rpm max. Beware of the spreading of the cells in the “eppendorf”. • Wash twice with 1 ml cold PBS to neutralize. • Add 50 μl of lysis RIPA Buffer. • Incubate 30 min-1 h on ice with agitation. • Adherent Cells: • Wash three times with 3 ml, 1 ml or 200 μl (for 6, 24 or 96 well plates, respectively) of cold acidic wash buffer. Beware of the cells who detach from the dish. • Wash twice with 1 ml cold PBS (for 6, 24 or 96 well plates, respectively) to neutralize. • Add 50 μl of lysis RIPA buffer. • Incubate 30 min-1 h on ice with agitation. • Scrap the cells with a cold scrapper. The 24 and 96 well plates were directly centrifuged at 4000 rpm at 4° for 15 min to remove the cellular debris. Then the supernatants (100 or 50 ml respectively for the 24 or 96 well plates) were directly transferred in a dark 96 well plated."}, "Lymphocytes B (CD19)": {"system": "Lymphocytes B (CD19)", "experiment": "Flow cytometry of FITC-transporter content in primary human white blood cells: lymphocytes B", "assay_type": "cell-based", "conditions": "1 uM, 30 min", "description": "(§1) Primary human white blood cells (WBC) were obtained from whole blood after red blood cell lysis. […] Cells containing D-TAT-FITC and r3-L-TAT-FITC were finally analysed by flow cytometry to measure their respective transporter content."}, "[1]": {"system": "HL-60 cell line (Leukemia)", "experiment": "Time dependant internalization of FITC-labeled TAT derived transporter constructs into HL-60 cells", "assay_type": "cell-based", "conditions": "10 μM; 30 min, 1, 6 or 24 hours", "procedure": "FIG. 3: depicts the results of the time dependant internalization (uptake) of FITC-labeled TAT derived transporter constructs into cells of the HL-60 cell line. […] HL-60 cells were incubated 30 min, 1, 6 or 24 hours with […] of the TAT-derivative transporters. The cells were then washed twice with an acidic buffer (0.2 M Glycin, 0.15 M NaCl, pH 3.0) and twice with PBS. Cells were broken by the addition of RIPA lysis buffer. The relative amount of internalized peptide was then determined by reading the fluorescence intensity (Fusion Alpha plate reader; PerkinElmer) of each extract followed by background substraction and protein content normalization. […]"}, "Monocytes (CD14)": {"system": "Monocytes (CD14)", "experiment": "Flow cytometry of FITC-transporter content in primary human white blood cells: monocytes", "assay_type": "cell-based", "conditions": "1 uM, 30 min", "description": "as §1"}, "[2]": {"system": "dissociated cortical primary neurons", "experiment": "Confocal microscopy of FITC-labeled TAT derivative transporters in cortical primary neurons", "assay_type": "cell-based, rat", "conditions": "500 nM, 24 hours", "procedure": "8.4 Internalization Experiments and Analysis • The time dependant internalization (uptake) of FITC-labeled TAT derived transporter constructs into cells of the HL-60 cell line was carried out with materials and methods as described above. • Briefly, HL-60 cells were incubated 30 min, 1, 6 or 24 hours with 10 μM of the TAT-derivative transporters. The cells were then washed twice with an acidic buffer (0.2 M Glycin, 0.15 M NaCl, pH 3.0) and twice with PBS. Cells were broken by the addition of RIPA lysis buffer. The relative amount of internalized peptide was then determined by reading the fluorescence intensity (Fusion Alpha plate reader; PerkinElmer) of each extract followed by background substraction and protein content normalization. […] The dissociated cortical primary neurons from P2 Sprague Dawley rats were cultured 12 days in neurobasal medium before exposure 24 hours to 500 nM of the FITC-labeled • TAT derivative transporters. The cells were washed five times with PBS on ice and then mounted in fluorsave mounting medium without prior fixation. Acquisitions were performed on LSM510 metaconfocal microscope (Zeiss). Images were processed with LSM510 software and mounted using Adobe photoshop. Visualization by confocal microscopy of labeling with 500 nM FITC-transporters (A: green). Nuclei were stained by Hoechst (B: blue)."}, "Neutrophils (CD15)": {"system": "Neutrophils (CD15)", "experiment": "Flow cytometry of FITC-transporter content in primary human white blood cells: neutrophils", "assay_type": "cell-based", "conditions": "1 uM, 30 min", "description": "as §1"}, "Lymphocytes T (CD3)": {"system": "Lymphocytes T (CD3)", "experiment": "Flow cytometry of FITC-transporter content in primary human white blood cells: lymphocytes T", "assay_type": "cell-based", "conditions": "1 uM, 30 min", "description": "as §1"}, "liver and lymph nodes": {"system": "liver and lymph nodes", "experiment": "FITC-XG-102 and FITC-D-TAT localization in liver and lymph nodes", "assay_type": "in vivo, Sprague Dawley rat", "conditions": "1 mg/kg i.v., 6 h post-injection", "description": "FIG. 22A and FIG. 22B: 22A: FITC-XG-102 (SEQ ID NO: 233) localization in the liver. Three cellular fields of FITC-XG-102-labelled cells isolated from liver. From left to right, FITC-labelled XG-102, corresponding DAPI nuclear stain and merge of both images. […] Typicall Kupfer cell shape and nucleus can be differentiated from hepatocytes by their shape. Small and triangle in Kupfer cells in contrast to big exagonal, well organized hepatocytes. Obj 63; bar, 20 μm. 22B: FITC-D-TAT (SEQ ID NO: 4) localization in the liver. Two cellular fields of FITC-D-TAT-labelled cells isolated from liver. From left to right, FITC-labelled XG-102, corresponding DAPI nuclear stain and merge of both images. […] Typicall Kupfer cell shape and nucleus can be differentiated from hepatocytes by their shape. Small and triangle in Kupfer cells in contrast to big exagonal, well organized hepatocytes. Obj 63; bar, 20 μm.\n(§2) FIG. 23A and FIG. 23B: 23A: FITC-XG-102 (SEQ ID NO: 233) localization in lymph nodes. Cellular field of FITC-XG-102-labelled cells isolated from lymph nodes. Upper panels from left to right: the composite image is organized with one cellular field stained with FITC-XG-102 (left), Dapi for nuclear stain (middle) and the corresponding merged image (right). In the lower panels, a zoomed cell cluster of each image is illustrated. […] The absence of FITC staining in the lymphoid follicles allows distinguishing from the medullary corde and cortex area. Medullary zone seems to have incorporated the FITC-XG-102, composed in majority by macrophages. Obj 10; bar, 50 μm.\nas §2, with “23B:” for “FIG. 23A and FIG. 23B:”, “FITC-D-TAT” for “23A: FITC-XG-102”, “4)” for “233)”, “FITC-D-TAT-labelled” for “FITC-XG-102-labelled”, “FITC-D-TAT” for “FITC-XG-102”, “FITC-D-TAT,” for “FITC-XG-102,”\nFemale Sprague Dawley rat was injected i.v. in the tail with either 1 mg/kg of FITC-XG102 (SEQ ID NO:233) or 1 mg/kg FITC-D-TAT (SEQ ID NO:4). Rats were sacrified 6 h post-injection using a lethal dose of sodium pentobarbital (150 mg/kg i.p.). For histological analysis and during narcosis, rats were perfused through the heart with 4% paraformaldehyde (PFA) in PBS. Organs (liver and lymph nodes) were cryoprotected in sucrose (30% in PBS), frozen using liquid isopentane and kept for further cryostat sectioning. Sections of 14 μm were incubated for 5 min in PBS before Hoechst staining for 2 min at RT (1 μg/ml). […]"}, "[3]": {"system": "Kupffer cells (CD-14 positive cells) of the liver", "experiment": "Liver cell localization of FITC-D-TAT after i.v. injection", "assay_type": "in vivo, mouse", "conditions": "0.1 mg/kg i.v.", "procedure": "FIG. 5: (A): Primary cultured macrophages were incubated with XG-102 (SEQ ID NO: 233) and extensively washed. […] (B): Mice were injected i.v. with 0.1 mg/kg FITC-D-TAT (SEQ ID NO: 4 plus FITC) and were sacrificed 24 hours later with PAF perfusion through the heart. Slices were obtained after cryoprotection using cryostat.\nMice were injected i.v. with 0.1 mg/kg of FITC-D-TAT (SEQ ID NO: 4) and were sacrificed by perfusion 24 h later. Liver was removed, cryoprotected and cut into slices with a cryostat. D-TAT was directly visualized via FITC fluorescence and cell nuclei were labeled with Hoechst dye. Hepatocytes are big cells (89% of liver cells) that display a large nucleus, whereas Kupffer cells (resident macrophages of the liver) represent approximately 10% of the cells and are small and thin, elongated cells with small nucleus."}, "[4]": {"system": "HepG2 hepatocarcinoma, HCT-116 tumoral colon", "experiment": "Uptake of FITC-labeled TAT derived transporter constructs in HepG2 and HCT-116", "assay_type": "cell-based, human", "conditions": "10 μM, 24 h"}},
  "note": "Square brackets hold non-standard residues; d marks the D form. Ends that are not written are not given here.",
  "data": [
    {"compound": "L-TAT-IB1(s): SEQ ID NO: 234: L-IB1(s) linked to 10 amino acid L-TAT carrier via two proline residues (GRKKRRQRRRPPRPKRPTTLNLFPQVPRSQD; Description of sequence L-TAT-IB1 (s))", "values": [
      {"measurement": "long term protection against IL-1 induced cell-death", "setting": "TC-3 cells", "result": "but not L-TAT-IB1(s), was able to confer long term (15 day) protection"}
    ]},
    {"compound": "rKKRrQRRr ([dR]KKR[dR]QRR[dR]) [r3-L-TAT]", "values": [
      {"measurement": "intracellular concentration of transporter construct subsequent to uptake", "setting": "U937 cells; 2 h", "result": 2.34},
      {"measurement": "intracellular concentration of transporter construct subsequent to uptake", "setting": "U937 cells; 4 h", "result": 3.16},
      {"measurement": "intracellular concentration of transporter construct subsequent to uptake", "setting": "U937 cells; 6 h", "result": 3.56},
      {"measurement": "intracellular concentration of transporter construct subsequent to uptake", "setting": "U937 cells; 24 h", "result": 11.2},
      {"measurement": "uptake (internalization)", "setting": "U937 lymphoma cells", "result": "most efficient"},
      {"measurement": "binding to cell population", "setting": "Lymphocytes B (CD19)", "result": "less efficiently to lymphocyte B cells"},
      {"measurement": "time dependant internalization (uptake)", "setting": "[1]", "result": "as effective as the D-TAT transporter construct"},
      {"measurement": "binding to cell population", "setting": "Monocytes (CD14)", "result": "binds to monocytes, neutrophils and lymphocyte T cells"},
      {"measurement": "internalization seen by confocal microscopy", "setting": "[2]", "result": "internalized into the cytoplasm of the non stressed neurons"},
      {"measurement": "binding to cell population", "setting": "Neutrophils (CD15)", "result": "binds to monocytes, neutrophils and lymphocyte T cells"},
      {"measurement": "binding to cell population", "setting": "Lymphocytes T (CD3)", "result": "binds to monocytes, neutrophils and lymphocyte T cells"}
    ]},
    {"compound": "N=C(N)NCCC[C@@H](NC(=O)[C@@H](CCCCN)NC(=O)[C@@H](CCCCN)NC(=O)[C@@H](CCCNC(=N)N)NC(=O)[C@@H](CCCNC(=N)N)NC(=O)[C@@H](CCC(N)=O)NC(=O)[C@@H](CCCNC(=N)N)NC(=O)[C@@H](CCCNC(=N)N)NC(=O)[C@@H](CCCNC(=N)N)NC(=O)CCNC(=S)Nc1ccc2c(c1)C(=O)OC21c2ccc(O)cc2Oc2cc(O)ccc21)C(N)=O", "note": "[FITC-D-TAT, FITC-βA-rrrqrrkkr]", "values": [
      {"measurement": "localization in lymph nodes", "setting": "liver and lymph nodes", "result": "decorates subcapsular sinus macrophages and constitutive migrating alveolar macrophages"},
      {"measurement": "localization in the liver", "setting": "liver and lymph nodes", "result": "efficiently decorates Kupfer cells in contrast to hepatocytes which only show a background staining level"},
      {"measurement": "cell type of accumulation in liver", "setting": "[3]; 24 h", "result": "accumulates predominantly in Kupffer cells"},
      {"measurement": "colocalization with CD-14 positive cells in liver", "setting": "[3]; 24 hours", "result": "colocalization between FITC-D-TAT labelled-cells and CD-14 positive cells"}
    ]},
    {"compound": "rrrRRRrrr [r6R3]", "values": [
      {"measurement": "uptake (internalization)", "setting": "[4]", "result": "most efficient"}
    ]}
  ]
}
